From PubChem BioAssay (NCI)
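All cell lines were grown in 96-well plates and treated with compound for 48 hours. GI50 marks 50% less growth. TGI is the concentration that stops growth completely.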

Legend:
Assay in all cases: inhibition of tumour cell growth, NCI panel, 48 h
HCT-116 colon = test system: HCT-116 colon
SF-268 CNS = test system: SF-268 CNS
HT29 colon = test system: HT29 colon
SK-MEL-2 melanoma = test system: SK-MEL-2 melanoma
NCI/ADR-RES ovarian = test system: NCI/ADR-RES ovarian
OVCAR-5 ovarian = test system: OVCAR-5 ovarian
T-47D breast = test system: T-47D breast
SF-295 CNS = test system: SF-295 CNS
U251 CNS = test system: U251 CNS
HCC-2998 colon = test system: HCC-2998 colon
MDA-MB-231 breast = test system: MDA-MB-231 breast
HOP-62 NSCLC = test system: HOP-62 NSCLC
HCT-15 colon = test system: HCT-15 colon
LOX IMVI melanoma = test system: LOX IMVI melanoma
UO-31 renal = test system: UO-31 renal
RXF 393 renal = test system: RXF 393 renal
SK-MEL-28 melanoma = test system: SK-MEL-28 melanoma
M14 melanoma = test system: M14 melanoma
ACHN renal = test system: ACHN renal
MOLT-4 leukemia = test system: MOLT-4 leukemia
SNB-75 CNS = test system: SNB-75 CNS
SN12C renal = test system: SN12C renal
SR leukemia = test system: SR leukemia
HL-60(TB) leukemia = test system: HL-60(TB) leukemia
SF-539 CNS = test system: SF-539 CNS
RPMI-8226 leukemia = test system: RPMI-8226 leukemia
UACC-62 melanoma = test system: UACC-62 melanoma
CAKI-1 renal = test system: CAKI-1 renal
HS 578T breast = test system: HS 578T breast
UACC-257 melanoma = test system: UACC-257 melanoma
SK-MEL-5 melanoma = test system: SK-MEL-5 melanoma
OVCAR-4 ovarian = test system: OVCAR-4 ovarian
A549 NSCLC = test system: A549 NSCLC
OVCAR-3 ovarian = test system: OVCAR-3 ovarian
BT-549 breast = test system: BT-549 breast
NCI-H226 lung = test system: NCI-H226 lung
HOP-92 NSCLC = test system: HOP-92 NSCLC
OVCAR-8 ovarian = test system: OVCAR-8 ovarian
A498 renal = test system: A498 renal
PC-3 prostate = test system: PC-3 prostate
SK-OV-3 ovarian = test system: SK-OV-3 ovarian
CCRF-CEM leukemia = test system: CCRF-CEM leukemia
MALME-3M melanoma = test system: MALME-3M melanoma
SW-620 colon = test system: SW-620 colon
MDA-MB-435 = test system: MDA-MB-435
NCI-H460 lung = test system: NCI-H460 lung
DU-145 prostate = test system: DU-145 prostate
786-0 renal = test system: 786-0 renal
KM12 colon = test system: KM12 colon
TK-10 renal = test system: TK-10 renal
K-562 leukemia = test system: K-562 leukemia
COLO 205 colon = test system: COLO 205 colon
SNB-19 CNS = test system: SNB-19 CNS
MCF7 breast = test system: MCF7 breast
NCI-H23 lung = test system: NCI-H23 lung
IGROV1 ovarian = test system: IGROV1 ovarian
NCI-H522 lung = test system: NCI-H522 lung
EKVX NSCLC = test system: EKVX NSCLC

O=C(N/N=C/c1ccc(Cl)s1)c1[nH]c2ccc(Br)cc2c1-c1ccccc1
GI50 (HCT-116 colon): 231 nM | TGI (HCT-116 colon): 7060 nM | GI50 (SF-268 CNS): 574 nM | TGI (SF-268 CNS): > 100000 nM | GI50 (HT29 colon): 319 nM | TGI (HT29 colon): 10700 nM | GI50 (SK-MEL-2 melanoma): 325 nM | TGI (SK-MEL-2 melanoma): 21000 nM | GI50 (NCI/ADR-RES ovarian): 144 nM | GI50 (OVCAR-5 ovarian): 424 nM | TGI (OVCAR-5 ovarian): > 100000 nM | GI50 (T-47D breast): 2310 nM | TGI (T-47D breast): > 86800 nM | GI50 (SF-295 CNS): 275 nM | TGI (SF-295 CNS): 3220 nM | GI50 (U251 CNS): 322 nM | TGI (U251 CNS): 18200 nM | GI50 (HCC-2998 colon): 453 nM | TGI (HCC-2998 colon): 46000 nM | GI50 (MDA-MB-231 breast): 290 nM | TGI (MDA-MB-231 breast): 3090 nM | GI50 (HOP-62 NSCLC): 766 nM | TGI (HOP-62 NSCLC): 41600 nM | GI50 (HCT-15 colon): 277 nM | GI50 (LOX IMVI melanoma): 308 nM | TGI (LOX IMVI melanoma): 1350 nM | GI50 (UO-31 renal): 520 nM | TGI (UO-31 renal): > 100000 nM | GI50 (RXF 393 renal): 547 nM | TGI (RXF 393 renal): 5010 nM | GI50 (SK-MEL-28 melanoma): 627 nM | TGI (SK-MEL-28 melanoma): > 100000 nM | GI50 (M14 melanoma): 318 nM | TGI (M14 melanoma): > 100000 nM | GI50 (ACHN renal): 361 nM | TGI (ACHN renal): > 61500 nM | GI50 (MOLT-4 leukemia): 330 nM | TGI (MOLT-4 leukemia): > 21400 nM | GI50 (SNB-75 CNS): 259 nM | TGI (SNB-75 CNS): 3450 nM | GI50 (SN12C renal): 350 nM | TGI (SN12C renal): 32900 nM | GI50 (SR leukemia): 290 nM | TGI (SR leukemia): 27600 nM | GI50 (HL-60(TB) leukemia): 226 nM | TGI (HL-60(TB) leukemia): 612 nM | GI50 (SF-539 CNS): 122 nM | TGI (SF-539 CNS): 429 nM | GI50 (RPMI-8226 leukemia): 356 nM | TGI (RPMI-8226 leukemia): > 52500 nM | GI50 (UACC-62 melanoma): 334 nM | TGI (UACC-62 melanoma): 25900 nM | GI50 (CAKI-1 renal): 450 nM | TGI (CAKI-1 renal): 47000 nM | GI50 (HS 578T breast): 496 nM | TGI (HS 578T breast): 34900 nM | GI50 (UACC-257 melanoma): 508 nM | TGI (UACC-257 melanoma): > 100000 nM | GI50 (SK-MEL-5 melanoma): 284 nM | TGI (SK-MEL-5 melanoma): 878 nM | GI50 (OVCAR-4 ovarian): 594 nM | TGI (OVCAR-4 ovarian): 69800 nM | GI50 (A549 NSCLC): 376 nM | TGI (A549 NSCLC): > 48200 nM | GI50 (OVCAR-3 ovarian): 321 nM | TGI (OVCAR-3 ovarian): 4180 nM | GI50 (BT-549 breast): 274 nM | TGI (BT-549 breast): 765 nM | GI50 (NCI-H226 lung): 313 nM | TGI (NCI-H226 lung): 6930 nM | GI50 (HOP-92 NSCLC): 1370 nM | TGI (HOP-92 NSCLC): 68300 nM | GI50 (OVCAR-8 ovarian): 214 nM | TGI (OVCAR-8 ovarian): 714 nM | GI50 (A498 renal): 28300 nM | TGI (A498 renal): > 100000 nM | GI50 (PC-3 prostate): 450 nM | TGI (PC-3 prostate): > 100000 nM | GI50 (SK-OV-3 ovarian): 409 nM | TGI (SK-OV-3 ovarian): 91200 nM | GI50 (CCRF-CEM leukemia): 354 nM | TGI (CCRF-CEM leukemia): > 86400 nM | GI50 (MALME-3M melanoma): 489 nM | TGI (MALME-3M melanoma): > 74400 nM | GI50 (SW-620 colon): 375 nM | TGI (SW-620 colon): > 100000 nM | GI50 (MDA-MB-435): 196 nM | TGI (MDA-MB-435): 384 nM | GI50 (NCI-H460 lung): 335 nM | TGI (NCI-H460 lung): 3270 nM | GI50 (DU-145 prostate): 346 nM | TGI (DU-145 prostate): 34100 nM | GI50 (786-0 renal): 418 nM | TGI (786-0 renal): > 41500 nM | GI50 (KM12 colon): 402 nM | TGI (KM12 colon): 27900 nM | GI50 (TK-10 renal): 4190 nM | TGI (TK-10 renal): > 100000 nM | GI50 (K-562 leukemia): 235 nM | TGI (K-562 leukemia): > 73800 nM | GI50 (COLO 205 colon): 488 nM | TGI (COLO 205 colon): 1680 nM | GI50 (SNB-19 CNS): 331 nM | TGI (SNB-19 CNS): > 90200 nM | GI50 (MCF7 breast): 266 nM | TGI (MCF7 breast): 4210 nM | GI50 (NCI-H23 lung): 426 nM | TGI (NCI-H23 lung): 38800 nM | GI50 (IGROV1 ovarian): 386 nM | TGI (IGROV1 ovarian): 21400 nM | GI50 (NCI-H522 lung): 71.9 nM | TGI (NCI-H522 lung): 242 nM | GI50 (EKVX NSCLC): 1180 nM | TGI (EKVX NSCLC): > 100000 nM
